For 19 compounds, GI50 results are on record in US20240132521A1, “COMPOUNDS AND METHODS FOR MODULATING HER2” (Iambic Therapeutics, Inc., priority 2022, published 2024).

Like-named read-outs stand apart in the source and are kept apart here.

Format in all cases: cell-based
One test has as its target BaF3_HER2YVMA cells (Homo sapiens, UniProt P04626, DUP772-775, cells depend on it). Description: Cell growth inhibition assay (CellTiterGlo), BaF3_HER2YVMA. On the technique in general: Cellular ATP, detected with luciferase, serves as a proxy for viable cell number.
A further test concerns the target BaF3_HER2WT cells (Homo sapiens, UniProt P04626). Description: Cell growth inhibition assay (CellTiterGlo), BaF3_HER2WT.
Another test addresses BaF3_EGFRWT cells (Homo sapiens, UniProt P00533). Description: Cell growth inhibition assay (CellTiterGlo), BaF3_EGFRWT.
The mark [1] stands for this setting: 3-day treatment, CellTiterGlo, read-out: Cell growth inhibition activity, HER2 - YVMA.
Where [2] appears, read: 3-day treatment, CellTiterGlo, read-out: Cell growth inhibition activity, HER2 WT.
Setting [3] is: 3-day treatment, CellTiterGlo, read-out: Cell growth inhibition activity, EGFR WT.
Setting [4] is: cell growth inhibition, 3 days treatment, read-out: HER2 - YVMA IC50.
[5] abbreviates: cell growth inhibition, 3 days treatment, read-out: HER2 WT IC50.
The mark [6] stands for this setting: cell growth inhibition, 80 ng/mL EGF, 3 days treatment, read-out: EGFR WT IC50.

BaF3_HER2WT cells, sequence (P04626 whole entry, change not shown): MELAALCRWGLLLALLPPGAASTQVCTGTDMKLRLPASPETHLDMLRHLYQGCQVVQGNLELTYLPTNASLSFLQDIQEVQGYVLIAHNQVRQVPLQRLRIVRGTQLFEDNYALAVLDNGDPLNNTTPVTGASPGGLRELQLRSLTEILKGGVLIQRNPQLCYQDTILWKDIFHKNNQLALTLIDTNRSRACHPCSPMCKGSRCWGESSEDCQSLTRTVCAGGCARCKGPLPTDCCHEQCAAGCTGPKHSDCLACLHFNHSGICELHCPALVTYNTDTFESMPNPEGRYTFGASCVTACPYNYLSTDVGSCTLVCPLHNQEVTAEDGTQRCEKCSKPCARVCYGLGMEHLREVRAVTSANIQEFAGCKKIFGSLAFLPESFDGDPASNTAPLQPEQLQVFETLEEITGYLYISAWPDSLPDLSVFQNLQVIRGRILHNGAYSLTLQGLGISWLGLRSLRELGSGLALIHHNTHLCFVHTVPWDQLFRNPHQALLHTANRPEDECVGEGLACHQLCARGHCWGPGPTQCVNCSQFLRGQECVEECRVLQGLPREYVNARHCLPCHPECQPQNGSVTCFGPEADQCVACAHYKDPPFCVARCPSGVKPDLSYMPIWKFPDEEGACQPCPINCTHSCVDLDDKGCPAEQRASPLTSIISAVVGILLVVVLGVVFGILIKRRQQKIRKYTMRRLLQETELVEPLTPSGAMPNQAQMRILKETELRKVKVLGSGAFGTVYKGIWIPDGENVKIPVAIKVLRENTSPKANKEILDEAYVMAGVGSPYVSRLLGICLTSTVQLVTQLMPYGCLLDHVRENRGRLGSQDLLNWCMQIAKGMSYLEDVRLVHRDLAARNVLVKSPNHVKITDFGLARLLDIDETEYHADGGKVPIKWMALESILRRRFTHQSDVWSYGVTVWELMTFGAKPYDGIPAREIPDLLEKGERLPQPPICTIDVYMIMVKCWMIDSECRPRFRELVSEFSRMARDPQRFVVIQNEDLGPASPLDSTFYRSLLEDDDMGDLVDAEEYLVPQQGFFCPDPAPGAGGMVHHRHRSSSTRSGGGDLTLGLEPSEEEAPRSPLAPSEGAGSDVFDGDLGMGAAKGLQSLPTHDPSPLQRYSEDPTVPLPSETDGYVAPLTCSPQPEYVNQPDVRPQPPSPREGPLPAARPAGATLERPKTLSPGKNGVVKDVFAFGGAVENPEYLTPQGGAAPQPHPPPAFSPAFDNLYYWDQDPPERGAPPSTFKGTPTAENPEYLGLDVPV
BaF3_EGFRWT cells, sequence (P00533 whole entry, change not shown): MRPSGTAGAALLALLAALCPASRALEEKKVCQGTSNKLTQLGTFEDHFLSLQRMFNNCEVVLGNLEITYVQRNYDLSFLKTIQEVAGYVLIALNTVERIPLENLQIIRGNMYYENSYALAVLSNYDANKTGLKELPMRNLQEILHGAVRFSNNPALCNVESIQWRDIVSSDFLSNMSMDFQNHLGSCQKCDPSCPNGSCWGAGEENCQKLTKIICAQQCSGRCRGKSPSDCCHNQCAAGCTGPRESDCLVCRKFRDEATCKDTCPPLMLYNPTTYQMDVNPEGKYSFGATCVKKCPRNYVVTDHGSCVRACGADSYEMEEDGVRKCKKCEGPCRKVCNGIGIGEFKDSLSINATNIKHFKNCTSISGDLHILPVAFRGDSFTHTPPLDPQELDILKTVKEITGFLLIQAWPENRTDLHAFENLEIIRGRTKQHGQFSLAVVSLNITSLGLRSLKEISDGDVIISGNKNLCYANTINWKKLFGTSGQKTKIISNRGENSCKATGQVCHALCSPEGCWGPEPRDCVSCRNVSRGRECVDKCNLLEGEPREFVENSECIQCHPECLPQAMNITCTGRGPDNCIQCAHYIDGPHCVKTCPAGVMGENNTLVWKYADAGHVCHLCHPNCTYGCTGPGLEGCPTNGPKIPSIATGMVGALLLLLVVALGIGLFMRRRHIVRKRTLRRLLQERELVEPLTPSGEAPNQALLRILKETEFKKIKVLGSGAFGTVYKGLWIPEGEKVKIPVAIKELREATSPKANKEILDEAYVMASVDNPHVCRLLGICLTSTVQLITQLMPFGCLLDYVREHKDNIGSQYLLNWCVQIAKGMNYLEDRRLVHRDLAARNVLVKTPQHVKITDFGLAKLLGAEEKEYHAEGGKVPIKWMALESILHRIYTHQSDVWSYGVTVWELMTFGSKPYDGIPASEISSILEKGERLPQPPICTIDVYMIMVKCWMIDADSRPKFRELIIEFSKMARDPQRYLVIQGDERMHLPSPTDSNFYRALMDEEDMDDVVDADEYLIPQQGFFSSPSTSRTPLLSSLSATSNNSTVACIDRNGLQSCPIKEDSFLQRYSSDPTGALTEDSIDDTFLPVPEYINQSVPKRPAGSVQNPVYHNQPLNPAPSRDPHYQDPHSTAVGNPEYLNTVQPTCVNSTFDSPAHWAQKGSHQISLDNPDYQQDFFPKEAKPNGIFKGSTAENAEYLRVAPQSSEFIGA
BaF3_HER2YVMA cells, sequence (P04626 with tags, fused parts or gaps DUP772-775): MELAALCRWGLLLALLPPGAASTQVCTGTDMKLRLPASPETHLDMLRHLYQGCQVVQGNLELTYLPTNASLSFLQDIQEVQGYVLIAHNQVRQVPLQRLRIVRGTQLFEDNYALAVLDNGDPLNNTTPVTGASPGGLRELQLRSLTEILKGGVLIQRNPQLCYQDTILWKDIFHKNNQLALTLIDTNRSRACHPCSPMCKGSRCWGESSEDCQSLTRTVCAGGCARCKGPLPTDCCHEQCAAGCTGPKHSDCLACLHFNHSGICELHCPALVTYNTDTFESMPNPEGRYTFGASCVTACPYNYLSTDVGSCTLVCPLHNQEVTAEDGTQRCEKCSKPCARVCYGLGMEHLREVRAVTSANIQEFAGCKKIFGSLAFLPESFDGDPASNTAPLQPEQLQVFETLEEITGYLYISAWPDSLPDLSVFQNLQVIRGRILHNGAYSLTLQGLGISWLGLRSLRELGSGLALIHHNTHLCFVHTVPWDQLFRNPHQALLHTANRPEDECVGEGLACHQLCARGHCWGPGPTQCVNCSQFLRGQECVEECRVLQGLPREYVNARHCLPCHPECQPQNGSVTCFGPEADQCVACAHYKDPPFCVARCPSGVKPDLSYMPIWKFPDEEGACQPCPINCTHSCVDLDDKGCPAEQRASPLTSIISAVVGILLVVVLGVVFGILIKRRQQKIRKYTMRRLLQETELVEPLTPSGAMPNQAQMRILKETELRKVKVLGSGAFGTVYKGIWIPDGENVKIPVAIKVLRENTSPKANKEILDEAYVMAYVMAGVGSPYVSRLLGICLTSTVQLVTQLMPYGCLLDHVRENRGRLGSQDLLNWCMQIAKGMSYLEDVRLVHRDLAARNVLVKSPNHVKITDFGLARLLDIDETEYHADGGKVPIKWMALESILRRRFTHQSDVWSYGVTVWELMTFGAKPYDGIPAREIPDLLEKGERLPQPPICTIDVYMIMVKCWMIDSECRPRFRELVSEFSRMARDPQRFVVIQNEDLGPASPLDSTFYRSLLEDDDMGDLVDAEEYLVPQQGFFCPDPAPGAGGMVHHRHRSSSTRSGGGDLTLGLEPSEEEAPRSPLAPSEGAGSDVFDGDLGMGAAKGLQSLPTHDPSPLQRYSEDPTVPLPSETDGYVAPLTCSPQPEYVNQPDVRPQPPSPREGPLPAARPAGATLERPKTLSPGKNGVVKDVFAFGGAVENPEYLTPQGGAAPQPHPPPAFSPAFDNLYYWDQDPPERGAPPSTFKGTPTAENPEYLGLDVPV

In the case of `Cc1cc(Nc2ncnn3ccc(C4CCN(C(=O)/C=C/CN(C)C)CC4)c23)ccc1Oc1ccc2c(c1)ncn2C` [Example 133, (E)-4-(dimethylamino)-1-(4-(4-((3-methyl-4-((1-methyl-1H-benzo[d]234midazole-5-yl)oxy)phenyl)amino)pyrrolo[2,1-f][1,2,4]triazin-5-yl)piperidin-1-yl)but-2-en-1-one], the GI50 is less than 0.2 µM at BaF3_HER2YVMA cells (setting [1]), less than 0.2 µM at BaF3_HER2WT cells (setting [2]) and 1.5 to 5 µM on BaF3_EGFRWT cells (setting [3]).
Turning to `C=C(CN(C)C)C(=O)N1CCCC(c2ccn3ncnc(Nc4ccc(Oc5ccn6ncnc6c5)c(C)c4)c23)CC1` (single isomer, unassigned) [Examples 143 and 144, first eluting isomer, 1-(4-(4-((4-([1,2,4]triazolo[1,5-a]pyridin-7-yloxy)-3-methylphenyl)amino)pyrrolo[2,1-f][1,2,4]triazin-5-yl)azepan-1-yl)-2-((dimethylamino)methyl)prop-2-en-1-one], the GI50 on BaF3_HER2YVMA cells (setting [4]) was 0.5 to 1.5 µM; at BaF3_HER2WT cells (setting [5]) it was less than 0.2 µM; at BaF3_EGFRWT cells (setting [6]) it was 1.5 to 5 µM.
For the compound `C=C(CN(C)C)C(=O)N1CCCC(c2ccn3ncnc(Nc4ccc(Oc5ccn6ncnc6c5)c(C)c4)c23)CC1` (single isomer, unassigned) [Examples 143 and 144, second eluting isomer, 1-(4-(4-((4-([1,2,4]triazolo[1,5-a]pyridin-7-yloxy)-3-methylphenyl)amino)pyrrolo[2,1-f][1,2,4]triazin-5-yl)azepan-1-yl)-2-((dimethylamino)methyl)prop-2-en-1-one], the GI50 on BaF3_HER2YVMA cells (setting [4]) was less than 0.2 µM; on BaF3_HER2WT cells (setting [5]), less than 0.2 µM; on BaF3_EGFRWT cells (setting [6]), 1.5 to 5 µM.
Consider `Cc1cc(Nc2ncnn3ccc(N4C5CCC4CN(C(=O)/C=C/CN(C)C)C5)c23)ccc1Oc1ccn2ncnc2c1` [Example 45, (E)-1-(8-(4-((4-([1,2,4]triazolo[1,5-a]pyridin-7-yloxy)-3-methylphenyl)amino)pyrrolo[2,1-f][1,2,4]triazin-5-yl)-3,8-diazabicyclo[3.2.1]octan-3-yl)-4-(dimethylamino)but-2-en-1-one], for which the figures for the GI50 at BaF3_HER2YVMA cells (setting [1]), on BaF3_HER2WT cells (setting [2]) and at BaF3_EGFRWT cells (setting [3]) were less than 0.2 µM, less than 0.2 µM and 1.5 to 5 µM, respectively.
Consider `Cc1cc(Nc2ncnn3ccc(C4CN(C(=O)/C(C#N)=C/C(C)(C)C)C4)c23)ccc1Oc1ccn2ncnc2c1` [Example 89, (E)-2-(3-(4-((4-([1,2,4]triazolo[1,5-a]pyridin-7-yloxy)-3-methylphenyl)amino)pyrolo[2,1-f][1,2,4]triazin-5-yl)azetidine-1-carbonyl)-4,4-dimethylpent-2-enenitrile], for which the GI50 at BaF3_HER2YVMA cells (setting [1]), at BaF3_HER2WT cells (setting [2]) and on BaF3_EGFRWT cells (setting [3]) was 1.5 to 5 µM each time.
Turning to `C=CC(=O)N1CC2CCC(C1)N2c1ccn2ncnc(Nc3ccc(Oc4ccn5ncnc5c4)c(C)c3)c12` [Example 44, 1-(8-(4-((4-([1,2,4]triazolo[1,5-a]pyridin-7-yloxy)-3-methylphenyl)amino)pyrrolo[2,1-f][1,2,4]triazin-5-yl)-3,8-diazabicyclo[3.2.1]octan-3-yl)prop-2-en-1-one], the GI50 at BaF3_HER2YVMA cells (setting [1]) was less than 0.2 µM; at BaF3_HER2WT cells (setting [2]), less than 0.2 µM; at BaF3_EGFRWT cells (setting [3]) it was 1.5 to 5 µM.
Regarding `C=C(CN(C)C)C(=O)N1CC2CCC1CC2c1ccn2ncnc(Nc3ccc(Oc4ccn5ncnc5c4)c(C)c3)c12` (single isomer, unassigned) [Examples 135 and 136, second eluting isomer, 1-(5-(4-((4-([1,2,4]triazolo[1,5-a]pyridin-7-yloxy)-3-methylphenyl)amino)pyrrolo[2,1-f][1,2,4]triazin-5-yl)-2-azabicyclo[2.2.2]octan-2-yl)-2-((dimethylamino)methyl)prop-2-en-1-one], the GI50 was 0.2 to 0.5 µM on BaF3_HER2YVMA cells (setting [4]), less than 0.2 µM at BaF3_HER2WT cells (setting [5]) and less than 0.2 µM on BaF3_EGFRWT cells (setting [6]).
With `Cc1cc(Nc2ncnn3ccc(C4CCN(C(=O)/C=C/CN5CCC(F)C5)CC4)c23)ccc1Oc1ccn2ncnc2c1` (stereo not drawn) [Example 164, (E)-1-(4-(4-((4-([1,2,4]triazolo[1,5-a]pyridin-7-yloxy)-3-methylphenyl)amino)pyrrolo[2,1-f][1,2,4]triazin-5-yl)piperidin-1-yl)-4-(3-fluoropyrrolidin-1-yl)but-2-en-1-one], the values for the GI50 on BaF3_HER2YVMA cells (setting [1]), at BaF3_HER2WT cells (setting [2]) and on BaF3_EGFRWT cells (setting [3]) were less than 0.2 µM, less than 0.2 µM and 1.5 to 5 µM, respectively.
With `COC1CN(C/C=C/C(=O)N2CCC(c3ccn4ncnc(Nc5ccc(Oc6ccn7ncnc7c6)c(C)c5)c34)CC2)C1` [Example 117, (E)-1-(4-(4-((4-([1,2,4]triazolo[1,5-a]217midazol-7-yloxy)-3-methylphenyl)amino)pyrrolo[2,1-f][1,2,4]triazin-5-yl)piperidin-1-yl)-4-(3-methoxyazetidin-1-yl)but-2-en-1-one], the GI50 was less than 0.2 µM on BaF3_HER2YVMA cells (setting [1]), less than 0.2 µM on BaF3_HER2WT cells (setting [2]) and 1.5 to 5 µM at BaF3_EGFRWT cells (setting [3]).
In the case of `Cc1cc(Nc2ncnn3ccc(N4CCCC(N(C)C(=O)/C=C/CN(C)C)C4)c23)ccc1Oc1ccn2ncnc2c1` (stereo not drawn) [Example 68, (E)-N-(1-(4-((4-([1,2,4]triazolo[1,5-a]pyridin-7-yloxy)-3-methylphenyl)amino)pyrrolo[2,1-f][1,2,4]triazin-5-yl)piperidin-3-yl)-4-(dimethylamino)-N-methylbut-2-enamide], the GI50 on BaF3_HER2YVMA cells (setting [1]) was less than 0.2 µM; at BaF3_HER2WT cells (setting [2]), less than 0.2 µM; on BaF3_EGFRWT cells (setting [3]), 1.5 to 5 µM.
With `C=CC(=O)N1CC2CCC1CC2c1ccn2ncnc(Nc3ccc(Oc4ccn5ncnc5c4)c(C)c3)c12` (single isomer, unassigned) [Examples 139 and 140, second eluting isomer, 1-(5-(4-((4-([1,2,4]triazolo[1,5-a]pyridin-7-yloxy)-3-methylphenyl)amino)pyrrolo[2,1-f][1,2,4]triazin-5-yl)-2-azabicyclo[2.2.2]octan-2-yl)prop-2-en-1-one], the GI50 on BaF3_HER2YVMA cells (setting [4]) was 1.5 to 5 µM; on BaF3_HER2WT cells (setting [5]), 0.5 to 1.5 µM; at BaF3_EGFRWT cells (setting [6]), 1.5 to 5 µM.
Consider `Cc1cc(Nc2ncnn3ccc(C4(O)CN(C(=O)/C=C/CN(C)C)C4)c23)ccc1Oc1ccn2ncnc2c1` [Example 51, (E)-1-(3-(4-((4-([1,2,4]triazolo[1,5-a]pyridin-7-yloxy)-3-methylphenyl)amino)pyrrolo[2,1-f][1,2,4]triazin-5-yl)-3-hydroxyazetidine-1-yl)-4-(dimethylamino)but-2-en-1-one], for which the GI50 at BaF3_HER2YVMA cells (setting [1]) was less than 0.2 µM; on BaF3_HER2WT cells (setting [2]), less than 0.2 µM; on BaF3_EGFRWT cells (setting [3]), 1.5 to 5 µM.
As for `Cc1cc(Nc2ncnn3ccc(N4CCN(C(=O)C(F)Cl)CC(F)(F)C4)c23)ccc1Oc1ccn2ncnc2c1` (stereo not drawn) [Example 63, 1-(4-(4-((4-([1,2,4]triazolo[1,5-a]pyridin-7-yloxy)-3-methylphenyl)amino)pyrrolo[2,1-f][1,2,4]triazin-5-yl)-6,6-difluoro-1,4-diazepan-1-yl)-2-chloro-2-fluoroethan-1-one], the GI50 on BaF3_HER2YVMA cells (setting [1]) was 0.5 to 1.5 µM; at BaF3_HER2WT cells (setting [2]), 0.5 to 1.5 µM; at BaF3_EGFRWT cells (setting [3]) it was 1.5 to 5 µM.
For `C=C(CN(C)C)C(=O)N1C2CCC1CN(c1ccn3ncnc(Nc4ccc(Oc5ccn6ncnc6c5)c(C)c4)c13)C2` [Example 48, 1-(3-(4-((4-([1,2,4]triazolo[1,5-a]pyridin-7-yloxy)-3-methylphenyl)amino)pyrrolo[2,1-f][1,2,4]triazin-5-yl)-3,8-diazabicyclo[3.2.1]octan-8-yl)-2-((dimethylamino)methyl)prop-2-en-1-one], the figures for the GI50 at BaF3_HER2YVMA cells (setting [1]), on BaF3_HER2WT cells (setting [2]) and on BaF3_EGFRWT cells (setting [3]) were 1.5 to 5 µM, 0.2 to 0.5 µM and 1.5 to 5 µM, respectively.
Consider `Cc1cc(Nc2ncnn3ccc(C4CCN(C(=O)[C@@H](F)Cl)CC4)c23)ccc1Oc1ccn2ncnc2c1` (single isomer, unassigned; second eluting) [Examples 173 and 174, second eluting isomer, (5)-1-(4-(4-((4-([1,2,4]triazolo[1,5-a]pyridin-7-yloxy)-3-methylphenyl)amino)pyrrolo[2,1-f][1,2,4]triazin-5-yl)piperidin-1-yl)-2-chloro-2-fluoroethan-1-one], for which the GI50 on BaF3_HER2YVMA cells (setting [4]) is less than 0.2 µM; at BaF3_HER2WT cells (setting [5]) it was less than 0.2 µM; on BaF3_EGFRWT cells (setting [6]), 1.5 to 5 µM.
As for `C=CC(=O)N(C)C1CCCN(c2ccn3ncnc(Nc4ccc(Oc5ccn6ncnc6c5)c(C)c4)c23)C1` (stereo not drawn) [Example 69, N-(1-(4-((4-([1,2,4]triazolo[1,5-a]pyridin-7-yloxy)-3-methylphenyl)amino)pyrrolo[2,1-f][1,2,4]triazin-5-yl)piperidin-3-yl)-N-methylacrylamide], the GI50 on BaF3_HER2YVMA cells (setting [1]) is 0.2 to 0.5 µM; on BaF3_HER2WT cells (setting [2]), less than 0.2 µM; on BaF3_EGFRWT cells (setting [3]), 1.5 to 5 µM.
`Cc1cc(Nc2ncnn3ccc(C4(O)CCN(C(=O)/C=C/CN(C)C)CC4)c23)ccc1Oc1ccn2ncnc2c1` [Example 50, (E)-1-(4-(4-((4-([1,2,4]triazolo[1,5-a]pyridin-7-yloxy)-3-methylphenyl)amino)pyrrolo[2,1-f][1,2,4]triazin-5-yl)-4-hydroxypiperidin-1-yl)-4-(dimethylamino)but-2-en-1-one]: the results for the GI50 on BaF3_HER2YVMA cells (setting [1]), at BaF3_HER2WT cells (setting [2]) and at BaF3_EGFRWT cells (setting [3]) were 0.5 to 1.5 µM, 0.2 to 0.5 µM and 1.5 to 5 µM, respectively.
Take `COC1CCN(C/C=C/C(=O)N2CC(c3ccn4ncnc(Nc5ccc(Oc6ccn7ncnc7c6)c(C)c5)c34)C2)CC1` [Example 42, (E)-1-(3-(4-((4-([1,2,4]triazolo[1,5-a]pyridin-7-yloxy)-3-methylphenyl)amino)pyrrolo[2,1-f][1,2,4]triazin-5-yl)azetidin-1-yl)-4-(4-methoxypiperidin-1-yl)but-2-en-1-one]: the GI50 was less than 0.2 µM on BaF3_HER2YVMA cells (setting [1]), less than 0.2 µM on BaF3_HER2WT cells (setting [2]) and 1.5 to 5 µM on BaF3_EGFRWT cells (setting [3]).
As to `Cc1cc(Nc2ncnn3ccc(C4CCN(C(=O)[C@H](F)Cl)CC4)c23)ccc1Oc1ccn2ncnc2c1` (single isomer, unassigned) [Examples 173 and 174, first eluting isomer], the GI50 on BaF3_HER2YVMA cells (setting [4]) was 1.5 to 5 µM; on BaF3_HER2WT cells (setting [5]) it was 0.2 to 0.5 µM; on BaF3_EGFRWT cells (setting [6]), 1.5 to 5 µM.
